Measured values taken from PMC12073402, “A Selective MAP3K1 Inhibitor Facilitates Discovery of NPM1 as a Member of the Network” (Molecules, 2025).

How the values were obtained:
NPM1 phosphorylation = assay: TMT phosphoproteomics of PANC-1 cells; format: cell-based; settings: 10 μM, 2 h, versus DMSO
Method: Next, we wanted to assess the effects of 51-106 on the early phosphorylation events associated with transient MAP3K1 inhibition. To this end, we conducted global proteomic and phosphoproteomic analyses of PANC-1 cells treated with varying doses of 51-106 (10, 5, 2.5, 1.25, 0.625, and 0 μM) for 2 h using a tandem mass tag (TMT)-based multiplexing strategy (Figure 4). Across all conditions, a total of 7028 proteins and 22,843 phosphosites were quantified and successfully mapped to known protein sequences. Significance cutoffs of >0.32 or <−0.32 log2FC of 51-106 compared to DMSO and FDR < 0.05 were used to analyze differences in total and phosphorylated protein levels between treatment and control samples using RokaiXplorer (Supplementary Figure S3a).
PANC-1 (1 × 10^7) cells were seeded into T125 flasks (FB012939, Fisher Scientific) and allowed to attach overnight in a humidified 5% CO2 incubator at 37 °C. Drug working solutions were prepared from 10 mM DMSO stocks. 51-106 was added in 4 dilutions, in triplicates. […]
Global proteome and phosphopeptide-enriched fractions were analyzed on an Orbitrap Eclipse mass spectrometer using UltiMate 3000 RSLC nano system for online separation of peptides in trap and elute configuration (Thermo Scientific, San Jose, CA, USA). […] Survey MS scans were recorded in Orbitrap mass analyzer with 375 to 1500 m/z scan range at 120,000 resolution. […]

CDK7 = target: T1, CDK7 (Homo sapiens, UniProt P50613); assay: KiNativ kinome profiling in PANC-1 lysate; format: binding
T1 construct: endogenous in cells; host or cells: PANC-1 cell lysate
T1 sequence (P50613 whole entry): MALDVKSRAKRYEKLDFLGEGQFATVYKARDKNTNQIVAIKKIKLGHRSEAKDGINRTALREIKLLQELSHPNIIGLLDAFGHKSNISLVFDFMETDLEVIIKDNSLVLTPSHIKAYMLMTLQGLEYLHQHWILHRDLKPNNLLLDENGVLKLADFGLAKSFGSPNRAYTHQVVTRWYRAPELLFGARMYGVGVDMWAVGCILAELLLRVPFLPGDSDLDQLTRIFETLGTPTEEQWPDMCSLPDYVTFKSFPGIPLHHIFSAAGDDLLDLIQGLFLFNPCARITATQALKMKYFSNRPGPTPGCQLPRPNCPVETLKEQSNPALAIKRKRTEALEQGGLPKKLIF
Description: (§1) To assess target engagement and selectivity, we opted to conduct a kinome screen (KiNativ) in PANC-1 cell lysates. This chemical proteomics (chemoproteomics) methodology allows for the evaluation of small-molecule binding to protein kinases in native systems such as cell lysates. KiNativ utilizes a soluble chemical probe comprising ATP linked to biotin through an acyl-phosphate bond. The probe covalently modifies conserved lysine residues found in the ATP binding site of essentially all protein kinases (Figure 2A). To profile a kinase inhibitor, cell lysates are treated with a vehicle control or inhibitor prior to addition of the desthiobiotin ATP probe. The ATP probe occupies the ATP binding site in the kinase, which enables the conserved lysines to be biotinylated. […] The cell lysates are digested with a protease (trypsin), biotinylated peptides are affinity-enriched on streptavidin beads, and the labeled peptides are analyzed by liquid chromatography–tandem MS (Figure 2B). If an inhibitor binds to a kinase, it competes with the ATP, thus resulting in a loss of that kinase-associated peptide signal, allowing for the quantitative measurement of inhibitor binding. Unlike recombinant enzyme assays, KiNativ IC50 values are a direct measure of active site binding instead of enzymatic activity.
(§2) Kinome profiling quantified the activity of 51-106 against >300 kinases in the PANC-1 cells. The results summarized in Figure 2C are the average of duplicate control and duplicate treated samples with 5 μM of 51-106 or DMSO.
(§3) KiNativ assay with 51-106.
(§4) ATP Loop: ATP binding loop
(§5) Activation Loop: Activation loop
(§6) ATP: ATP site in non-canonical kinase (e.g. lipid kinase)
(§7) Protein Kinase Domain: Other lysine within kinase domain, possibly not in ATP binding site
(§8) Other: Labeling of residue outside of the protein kinase domain, possibly not in ATP binding site
(§9) No change. NB = No Binding (≤ 0)
(§10) >100% increase in MS signal (>2 fold increase)
(§11) Data points inhibited […] & not considered significant are left uncolored
(§12) Note: This KiNativ dataset is the result of an analysis of duplicate treated samples and control samples.
(§13) The % changes in MS signals being reported are statistically significant (Student T -test score < 0.04)

CHED = target: T2, CHED (Homo sapiens, UniProt Q14004); assay: KiNativ kinome profiling in PANC-1 lysate; format: binding; settings: Lys2
T2 construct: endogenous in cells; host or cells: PANC-1 cell lysate
T2 sequence (Q14004 whole entry): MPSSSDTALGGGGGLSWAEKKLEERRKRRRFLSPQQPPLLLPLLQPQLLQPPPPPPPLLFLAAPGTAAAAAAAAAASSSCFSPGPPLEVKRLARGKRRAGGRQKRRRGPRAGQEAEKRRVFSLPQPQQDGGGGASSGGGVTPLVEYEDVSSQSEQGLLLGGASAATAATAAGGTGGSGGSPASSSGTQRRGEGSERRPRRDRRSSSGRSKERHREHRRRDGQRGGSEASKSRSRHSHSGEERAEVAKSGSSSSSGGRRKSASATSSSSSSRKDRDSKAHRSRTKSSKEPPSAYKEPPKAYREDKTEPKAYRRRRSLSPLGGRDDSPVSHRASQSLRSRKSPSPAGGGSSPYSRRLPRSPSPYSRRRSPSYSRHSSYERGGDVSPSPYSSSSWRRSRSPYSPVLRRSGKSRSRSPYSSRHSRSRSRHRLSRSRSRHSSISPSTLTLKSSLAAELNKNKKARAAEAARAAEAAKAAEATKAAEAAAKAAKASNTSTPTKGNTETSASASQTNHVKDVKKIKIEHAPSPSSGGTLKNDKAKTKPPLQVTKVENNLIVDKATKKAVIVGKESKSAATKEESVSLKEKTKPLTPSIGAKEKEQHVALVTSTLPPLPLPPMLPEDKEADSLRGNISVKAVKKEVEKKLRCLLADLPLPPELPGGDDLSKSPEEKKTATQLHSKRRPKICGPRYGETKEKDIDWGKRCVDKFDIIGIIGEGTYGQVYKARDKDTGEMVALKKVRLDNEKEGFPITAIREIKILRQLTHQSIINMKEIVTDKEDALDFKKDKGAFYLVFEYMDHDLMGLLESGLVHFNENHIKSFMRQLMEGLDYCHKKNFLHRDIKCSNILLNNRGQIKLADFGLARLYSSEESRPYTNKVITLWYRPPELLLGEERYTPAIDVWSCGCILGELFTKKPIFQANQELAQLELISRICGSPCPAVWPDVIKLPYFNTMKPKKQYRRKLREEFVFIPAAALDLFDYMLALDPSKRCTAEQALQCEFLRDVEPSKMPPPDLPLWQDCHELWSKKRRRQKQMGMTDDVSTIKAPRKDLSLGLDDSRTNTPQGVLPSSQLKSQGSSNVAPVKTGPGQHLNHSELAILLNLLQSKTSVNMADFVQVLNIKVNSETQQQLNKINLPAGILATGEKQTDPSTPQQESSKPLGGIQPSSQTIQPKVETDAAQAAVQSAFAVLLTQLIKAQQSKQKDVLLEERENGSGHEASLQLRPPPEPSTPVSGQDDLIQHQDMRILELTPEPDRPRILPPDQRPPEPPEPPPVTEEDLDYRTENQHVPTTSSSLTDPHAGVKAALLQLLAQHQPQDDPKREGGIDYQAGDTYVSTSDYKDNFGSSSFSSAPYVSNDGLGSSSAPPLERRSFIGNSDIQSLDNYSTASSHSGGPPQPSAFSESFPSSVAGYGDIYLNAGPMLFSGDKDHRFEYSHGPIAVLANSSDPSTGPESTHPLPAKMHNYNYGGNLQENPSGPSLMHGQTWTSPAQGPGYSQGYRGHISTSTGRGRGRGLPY
Description: as §1, §2, §3, §4, §5, §6, §7, §8, §9, §10, §11, §12, §13

NuaK2 = target: T3, NuaK2 (Homo sapiens, UniProt Q9H093); assay: KiNativ kinome profiling in PANC-1 lysate; format: binding; settings: Lys1
T3 construct: endogenous in cells; host or cells: PANC-1 cell lysate
T3 sequence (Q9H093 whole entry): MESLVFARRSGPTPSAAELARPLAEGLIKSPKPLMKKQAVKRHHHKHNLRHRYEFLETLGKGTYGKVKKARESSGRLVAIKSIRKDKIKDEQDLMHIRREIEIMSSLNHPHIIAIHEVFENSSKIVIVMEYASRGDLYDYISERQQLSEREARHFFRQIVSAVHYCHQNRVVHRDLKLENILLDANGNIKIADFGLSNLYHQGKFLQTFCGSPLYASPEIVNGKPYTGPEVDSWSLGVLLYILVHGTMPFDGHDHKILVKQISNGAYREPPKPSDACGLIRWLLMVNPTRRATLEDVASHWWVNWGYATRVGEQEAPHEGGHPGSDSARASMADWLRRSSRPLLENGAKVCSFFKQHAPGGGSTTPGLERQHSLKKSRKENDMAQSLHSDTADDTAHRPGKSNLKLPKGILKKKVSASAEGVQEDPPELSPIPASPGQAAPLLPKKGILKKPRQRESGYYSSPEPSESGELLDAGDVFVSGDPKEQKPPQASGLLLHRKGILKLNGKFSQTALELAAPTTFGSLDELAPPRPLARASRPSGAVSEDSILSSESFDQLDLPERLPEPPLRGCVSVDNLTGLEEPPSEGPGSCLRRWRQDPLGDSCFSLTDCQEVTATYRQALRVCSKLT
Description: as §1, §2, §3, §4, §5, §6, §7, §8, §9, §10, §11, §12, §13

SRPK2 = target: T4, SRPK2 (Homo sapiens, UniProt P78362); assay: KiNativ kinome profiling in PANC-1 lysate; format: binding; settings: Lys2
T4 construct: endogenous in cells; host or cells: PANC-1 cell lysate
T4 sequence (P78362 whole entry): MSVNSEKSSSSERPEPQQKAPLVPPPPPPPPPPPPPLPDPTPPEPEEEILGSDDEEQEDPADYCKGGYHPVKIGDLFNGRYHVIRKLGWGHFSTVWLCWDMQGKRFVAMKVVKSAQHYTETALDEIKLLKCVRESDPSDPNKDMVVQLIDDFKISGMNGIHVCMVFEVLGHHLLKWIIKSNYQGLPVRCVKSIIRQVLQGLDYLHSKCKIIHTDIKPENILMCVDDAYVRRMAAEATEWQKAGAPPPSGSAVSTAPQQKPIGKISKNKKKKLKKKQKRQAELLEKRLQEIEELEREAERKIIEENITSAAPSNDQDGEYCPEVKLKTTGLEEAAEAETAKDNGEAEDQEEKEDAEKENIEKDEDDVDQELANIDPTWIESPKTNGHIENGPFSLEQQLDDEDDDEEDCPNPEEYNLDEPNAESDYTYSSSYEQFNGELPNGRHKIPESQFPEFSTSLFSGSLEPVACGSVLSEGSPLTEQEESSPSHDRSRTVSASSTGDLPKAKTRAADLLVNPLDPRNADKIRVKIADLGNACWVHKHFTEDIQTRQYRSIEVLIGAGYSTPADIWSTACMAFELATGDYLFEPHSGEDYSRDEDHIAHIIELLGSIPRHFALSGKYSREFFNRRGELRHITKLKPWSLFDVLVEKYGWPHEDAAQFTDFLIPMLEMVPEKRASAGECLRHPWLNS
Description: as §1, §2, §3, §4, §5, §6, §7, §8, §9, §10, §11, §12, §13

NuaK1 = target: T5, NuaK1 (Homo sapiens, UniProt O60285); assay: KiNativ kinome profiling in PANC-1 lysate; format: binding; settings: Lys1
T5 construct: endogenous in cells; host or cells: PANC-1 cell lysate
Description: as §1, §2, §3, §4, §5, §6, §7, §8, §9, §10, §11, §12, §13

MST1 = target: T6, MST1 (Homo sapiens, UniProt Q13043); assay: KiNativ kinome profiling in PANC-1 lysate; format: binding; settings: Lys1
T6 construct: endogenous in cells; host or cells: PANC-1
Description: as §1, §2, §3, §4, §5, §6, §7, §8, §9, §10, §11, §12, §13

PKR = target: T7, PKR (Homo sapiens, UniProt P19525); assay: KiNativ kinome profiling in PANC-1 lysate; format: binding
T7 construct: endogenous in cells; host or cells: PANC-1 cell lysate
T7 sequence (P19525 whole entry): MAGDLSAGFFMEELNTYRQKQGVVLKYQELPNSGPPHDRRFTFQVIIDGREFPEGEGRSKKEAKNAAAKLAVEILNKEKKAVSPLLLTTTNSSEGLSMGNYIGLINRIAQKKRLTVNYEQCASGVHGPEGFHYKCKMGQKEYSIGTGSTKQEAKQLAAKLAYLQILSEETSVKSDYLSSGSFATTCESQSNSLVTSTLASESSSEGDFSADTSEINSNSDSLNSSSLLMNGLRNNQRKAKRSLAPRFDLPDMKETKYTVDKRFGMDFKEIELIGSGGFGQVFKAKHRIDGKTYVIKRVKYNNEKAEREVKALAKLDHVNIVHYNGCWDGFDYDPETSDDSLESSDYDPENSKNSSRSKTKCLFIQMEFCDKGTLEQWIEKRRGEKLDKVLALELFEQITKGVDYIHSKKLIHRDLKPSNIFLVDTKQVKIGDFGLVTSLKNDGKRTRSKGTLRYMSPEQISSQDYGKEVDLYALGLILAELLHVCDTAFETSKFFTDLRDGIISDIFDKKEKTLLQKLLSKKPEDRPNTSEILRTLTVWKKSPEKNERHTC
Description: as §1, §2, §3, §4, §5, §6, §7, §8, §9, §10, §11, §12, §13

RON = target: T8, RON (Homo sapiens, UniProt Q04912); assay: KiNativ kinome profiling in PANC-1 lysate; format: binding; settings: Lys1
T8 construct: endogenous in cells; host or cells: PANC-1 cell lysate
T8 sequence (Q04912 25-1400): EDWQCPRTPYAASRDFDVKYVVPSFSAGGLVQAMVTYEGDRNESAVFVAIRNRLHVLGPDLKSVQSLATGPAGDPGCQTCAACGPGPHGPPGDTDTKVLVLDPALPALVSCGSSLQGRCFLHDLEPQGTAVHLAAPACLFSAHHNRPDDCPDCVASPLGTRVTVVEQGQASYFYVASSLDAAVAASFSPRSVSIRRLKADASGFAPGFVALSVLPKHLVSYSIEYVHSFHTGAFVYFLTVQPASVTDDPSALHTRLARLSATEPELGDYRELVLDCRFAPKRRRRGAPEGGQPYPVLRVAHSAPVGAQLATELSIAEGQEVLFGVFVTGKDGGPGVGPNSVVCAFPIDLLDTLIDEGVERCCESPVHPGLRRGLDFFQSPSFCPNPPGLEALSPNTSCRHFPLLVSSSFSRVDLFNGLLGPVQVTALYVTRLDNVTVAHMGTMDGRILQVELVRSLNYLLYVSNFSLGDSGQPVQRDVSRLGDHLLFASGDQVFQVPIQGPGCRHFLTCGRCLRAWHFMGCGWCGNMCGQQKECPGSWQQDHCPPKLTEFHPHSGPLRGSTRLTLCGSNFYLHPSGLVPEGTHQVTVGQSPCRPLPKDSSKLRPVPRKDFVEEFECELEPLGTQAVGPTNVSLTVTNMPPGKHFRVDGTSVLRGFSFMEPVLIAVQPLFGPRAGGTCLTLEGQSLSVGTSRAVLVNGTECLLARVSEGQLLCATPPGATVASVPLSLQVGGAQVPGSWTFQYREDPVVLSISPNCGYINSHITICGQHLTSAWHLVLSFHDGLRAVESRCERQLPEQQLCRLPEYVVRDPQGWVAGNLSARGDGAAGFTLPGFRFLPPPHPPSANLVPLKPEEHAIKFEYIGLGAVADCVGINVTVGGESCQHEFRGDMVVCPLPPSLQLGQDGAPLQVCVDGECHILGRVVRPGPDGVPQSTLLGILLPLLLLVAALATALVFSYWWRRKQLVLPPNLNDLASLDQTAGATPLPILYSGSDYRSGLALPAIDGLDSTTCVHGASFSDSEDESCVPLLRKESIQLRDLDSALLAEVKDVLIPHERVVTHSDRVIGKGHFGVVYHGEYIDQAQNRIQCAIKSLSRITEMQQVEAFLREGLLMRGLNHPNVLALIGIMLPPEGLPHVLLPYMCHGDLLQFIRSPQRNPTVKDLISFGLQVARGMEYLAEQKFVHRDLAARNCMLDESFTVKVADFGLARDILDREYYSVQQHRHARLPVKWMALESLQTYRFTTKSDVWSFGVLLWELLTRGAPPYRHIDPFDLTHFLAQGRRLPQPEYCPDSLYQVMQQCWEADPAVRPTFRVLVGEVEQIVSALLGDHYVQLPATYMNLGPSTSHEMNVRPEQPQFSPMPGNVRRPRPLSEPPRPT
Description: as §1, §2, §3, §4, §5, §6, §7, §8, §9, §10, §11, §12, §13

Cn1cc(-c2cnc3ccc(NC(=O)Nc4ccc(F)c(C(F)(F)F)c4)cc3n2)cn1 [51-106, 1-(4-Fluoro-3-(trifluoromethyl)phenyl)-3-(3-(1-methyl-1H-pyrazol-4-yl)quinoxalin-6-yl)urea]
decrease in NPM1 S227 phosphorylation (NPM1 phosphorylation): 3.5 fold | inhibition at 5 µM (CDK7; Lys1, DKNTNQIVAIKK): 16.6% | inhibition at 5 µM (CDK7; Lys2, DLKPNNLLLDENGVLK): 1.6% | inhibition at 5 µM (CHED): ≤ 0% | inhibition at 5 µM (NuaK2): 2.2% | inhibition at 5 µM (SRPK2): ≤ 0% | inhibition at 5 µM (NuaK1): ≤ 0% | inhibition at 5 µM (MST1): ≤ 0% | inhibition at 5 µM (PKR; ATP Loop, IGDFGLVTSLKNDGKR): ≤ 0% | inhibition at 5 µM (PKR; Lys2, DLKPSNIFLVDTK): 18.7% | inhibition at 5 µM (RON): ≤ 0%
